Assay results reported in ChEMBL document CHEMBL1157992, “Alvaradoins A-D. Anthracenone C arabinosides from alvaradoa jamaicensis” (J Nat Prod, 1999).
The source made the active and inactive calls. The calls are words filed in the database; no cut-off is given here.

Tested on: Mycobacterium tuberculosis
Test: Antituberculosis activity against Mycobacterium tuberculosis at 12.5 ug/mL
Type: functional, organism-based

COc1cc(O)c2c(c1)[C@H]([C@H]1OC[C@H](OC(C)=O)[C@H](OC(=O)C=C(C)C)[C@H]1O)c1cc(C)cc(O)c1C2=O
Activity: inactive

COc1cc(O)c2c(c1)[C@@H]([C@H]1OC[C@H](OC(C)=O)[C@H](OC(=O)C=C(C)C)[C@H]1O)c1cc(C)cc(O)c1C2=O
Activity: inactive

COc1cc(O)c2c(c1)[C@](O)([C@H]1OC[C@H](OC(C)=O)[C@H](OC(=O)C=C(C)C)[C@H]1O)c1cc(C)cc(O)c1C2=O
Activity: inactive

Cc1cc(O)c2c(c1)C(=O)c1cccc(O)c1C2=O
Activity: inactive

COc1cc(O)c2c(c1)C(=O)c1cc(C)cc(O)c1C2=O
Activity: inactive

COc1cc(O)c2c(c1)[C@@](O)([C@H]1OC[C@H](OC(C)=O)[C@H](OC(=O)C=C(C)C)[C@H]1O)c1cc(C)cc(O)c1C2=O
Activity: inactive
